Measured values: patent US5137711A, “Paramagnetic DTPA and EDTA alkoxyalkylamide complexes as MRI agents” (Mallickrodt Medical, Inc., priority 1989, dated 1992)

System: ICR mice
Experiment: acute intravenous toxicity in ICR mice
Type: in vivo
Procedure: The acute intravenous toxicity of the compound of Example II was determined as follows: ICR mice, at 1 to 4 per dose level, received single intravenous injections of the test substance via a lateral tail vein at the rate of approximately 1 ml/minute. The test substances were at concentrations chosen to result in dose volumes of 5 to 75 ml/kg body weight. Dosing began at a volume of 10 ml/kg. Dose adjustments up or down were made to closely bracket the estimated LD50 with 4 animals per group (2 males and 2 females). Observations of the mice were recorded at times 0, 0.5, 1,2,4 and 24 hours and once daily thereafter for up to 7 days post injection. On the 7th day post injection, the mice were euthanized, weighed and necropsied. Abnormal tissues were noted. At this time a decision was made as to whether any histopathology was to be performed and whether or not the tissues should be retained. Necropsies were also performed on mice expiring after 24 hours post-injection, except for dead mice found on the weekends The LD50 values, along with 95% CI were calculated using a modified Behrens-Reed-Meunch method. The results for the complex of Example II are reported below:
Sex and Weight Range of Mice: Males(18.0-20.3 g) Females (19.0-21.7 g)

COCCNC(=O)CN(CCN(CCN(CC(=O)[O-])CC(=O)NCCOC)CC(=O)[O-])CC(=O)[O-].[Gd+3] [Example II, {N,N"-Bis[N-(2-methoxyethyl)-carbamoylmethyl]diethylenetriamine-N,N',N"-triaceto} gadolinium (III)]
Body weight of surviving mice (7-day post-injection period, i.v.): failed to gain weight | i.v. toxicity (overall, in words) (preliminary tests, mice): low order of i.v. toxicity
